Laboratory results as given in PMC6934184, “Selective DNA-PKcs inhibition extends the therapeutic index of localized radiotherapy and chemotherapy” (The Journal of Clinical Investigation, 2019).

Biological target: T1, MET M1250T (Homo sapiens, UniProt P08581, M1250T)
T1 construct: purchased Thermo Fisher Scientific (Life Technologies) SelectScreen
Assay: SelectScreen Z'LYTE
Assay type: biochemical
Summary of the method: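 SelectScreen broad panel; activity (Z'LYTE, Adapta) plus binding formats. ATP: Km app for CSF1R Z'LYTE; 10 for CAMK1 Adapta. Readout = % per kinase.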

T1 sequence (P08581 25-1390 M1250T): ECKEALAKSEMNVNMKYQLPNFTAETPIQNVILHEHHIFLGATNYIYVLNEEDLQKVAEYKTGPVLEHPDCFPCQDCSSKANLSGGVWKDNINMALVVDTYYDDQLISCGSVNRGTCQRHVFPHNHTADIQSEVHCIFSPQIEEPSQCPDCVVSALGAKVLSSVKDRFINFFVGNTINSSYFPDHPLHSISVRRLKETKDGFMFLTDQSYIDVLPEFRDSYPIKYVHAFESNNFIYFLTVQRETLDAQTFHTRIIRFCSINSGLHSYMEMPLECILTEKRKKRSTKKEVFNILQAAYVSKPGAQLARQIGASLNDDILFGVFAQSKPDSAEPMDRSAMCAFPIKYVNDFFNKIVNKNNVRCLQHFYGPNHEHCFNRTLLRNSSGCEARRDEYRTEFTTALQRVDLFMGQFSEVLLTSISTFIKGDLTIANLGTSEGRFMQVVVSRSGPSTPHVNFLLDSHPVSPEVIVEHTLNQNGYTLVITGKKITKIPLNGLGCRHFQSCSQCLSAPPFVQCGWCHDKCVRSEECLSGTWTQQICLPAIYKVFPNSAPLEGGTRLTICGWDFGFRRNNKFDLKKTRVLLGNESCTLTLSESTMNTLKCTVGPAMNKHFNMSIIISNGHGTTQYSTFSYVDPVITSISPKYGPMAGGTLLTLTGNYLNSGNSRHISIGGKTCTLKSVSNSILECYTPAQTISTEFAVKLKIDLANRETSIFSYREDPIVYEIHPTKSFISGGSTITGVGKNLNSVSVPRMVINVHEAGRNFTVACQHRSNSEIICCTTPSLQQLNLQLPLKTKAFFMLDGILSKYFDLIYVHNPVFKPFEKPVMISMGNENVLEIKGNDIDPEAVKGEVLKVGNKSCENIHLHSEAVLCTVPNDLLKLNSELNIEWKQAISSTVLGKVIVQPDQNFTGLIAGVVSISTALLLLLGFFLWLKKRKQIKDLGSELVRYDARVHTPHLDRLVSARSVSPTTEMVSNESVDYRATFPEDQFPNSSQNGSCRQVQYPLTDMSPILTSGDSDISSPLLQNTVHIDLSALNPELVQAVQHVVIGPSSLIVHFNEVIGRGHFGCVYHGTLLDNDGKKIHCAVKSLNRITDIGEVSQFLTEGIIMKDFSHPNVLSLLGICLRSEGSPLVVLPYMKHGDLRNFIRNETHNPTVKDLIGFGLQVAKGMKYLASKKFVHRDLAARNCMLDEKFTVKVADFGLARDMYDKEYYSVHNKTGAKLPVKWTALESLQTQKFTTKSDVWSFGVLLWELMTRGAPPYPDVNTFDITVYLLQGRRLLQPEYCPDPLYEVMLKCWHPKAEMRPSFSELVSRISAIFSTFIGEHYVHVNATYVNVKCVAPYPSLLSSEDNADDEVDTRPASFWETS

## CN(C(=O)CN1CCOCC1)c1ccc2sc3c(-c4cccc5c(=O)cc(N6CC7CCC(C6)O7)oc45)cccc3c2c1 [NU5455]
  inhibition at 1 µM: -14.5%
